# Experimental data: patent US20170000129A1, “METHOD FOR TREATING MINERAL SLURRIES WITH A BIOCIDE” (priority 2015, published 2017)
# How the values were obtained:
# [1] = test system: bacterial growth in kaolin slurry; test: Kaolin slurry preservation test: biocide-dosed 65% solids slurry plated on standard method agar, samples as treated; type: cell-based, bacteria
# Protocol: (§1) In the comparative testing, dry kaolin was mixed with water to achieve a 65% solid slurry material. This material contained no biocide. The slurry was then split into 200 gram aliquots and dosed with different biocides at different concentration as shown in Tables 1-3. All samples were kept at 50° C. until the end of the testing, which was up to 28 days.
# A number of different and known biocides were used in the study and they include glutaraldehyde (glute), 1,2 benzithiazolin-3-one (BIT), tetrahydro-3-5-methyl-2H-1,3,5-thiadizine-2-thione (thione), isothiazoline (ISO), bronopol (BNPD) or orthophenyl phenate (OPP). For shorthand purposes, the study refers to the tradename of the biocide, which is found in the above listing of the biocides. Metam sodium is designated as SMDC and MDTCMA is used without change
# (§2) The protocol for the testing of each sample is as follows: • 1) dosed with a recorded level of biocide; • 2) mixed for 24 hours contact time and plated using standard method agar for bacterial growth; • 3) remixed daily for 1 hour and retested for bacterial growth at Day 3; • 4) remixed daily for 1 hour and retested for bacterial growth at Day 7; • 5) remixed daily for 1 hour and retested for bacterial growth at Day 14; • 6) on day 20, samples were split into two containers: one container was inoculated (or challenged) with ˜10^5 cfu/ml bacteria, the other was left “as treated”, the challenge material was obtained from a contaminated kaolin product and is assumed to be representative of the types of bacteria that are seen in the kaolin industry, and the two sets of samples were prepared for Day 21 testing; • 7) both sets were remixed daily for 1 hour and retested for bacterial growth at Day 21; and • 8) both sets remixed daily for 1 hour and retested for bacterial growth at Day 28.
# Different contact times were used to see how quickly the bacterial population was effected by the biocide.
# [2] = test system: bacteria from a contaminated kaolin product; test: Kaolin slurry preservation test, challenge: on day 20 samples inoculated with ~10^5 cfu/ml bacteria from a contaminated kaolin product; type: cell-based
# Protocol: as §1, §2
compound,measurement,setting,value
"CN.CNC(=S)S [MDTCMA, methylammonium monomethyldithiocarbamate]","Log Red, contact time 1 day","[1]; 500 ppm, Table 1",0
same,"Log Red, contact time 3 day","[1]; 500 ppm, Table 1",1
same,"Log Red, contact time 7 day","[1]; 500 ppm, Table 1",3
same,"cfu/mL, contact time 1 day","[1]; 500 ppm, Table 1","13,140,000 cfu/mL"
same,"cfu/mL, contact time 3 day","[1]; 500 ppm, Table 1","1,880,000 cfu/mL"
same,"cfu/mL, contact time 7 day","[1]; 500 ppm, Table 1","40,000 cfu/mL"
same,performance against the BIT biocide when measuring log reduction,"[1]; 500 ppm, Table 1",performed at least as well as the BIT biocide
same,"Log Red, contact time 1 day","[1]; 500 ppm, Table 2",0
same,"Log Red, contact time 3 day","[1]; 500 ppm, Table 2",1
same,"Log Red, contact time 7 day","[1]; 500 ppm, Table 2",4
same,"Log Red, contact time 14 day","[1]; 500 ppm, Table 2",4
same,"Log Red, contact time 21 day","[1]; 500 ppm, Table 2",5
same,"Log Red, contact time 28 day","[1]; 500 ppm, Table 2",4
same,"cfu/mL, contact time 1 day","[1]; 500 ppm, Table 2","18,840,000 cfu/mL"
same,"cfu/mL, contact time 3 day","[1]; 500 ppm, Table 2","1,960,000 cfu/mL"
same,"cfu/mL, contact time 7 day","[1]; 500 ppm, Table 2","5,600 cfu/mL"
same,"cfu/mL, contact time 14 day","[1]; 500 ppm, Table 2","3,100 cfu/mL"
same,"cfu/mL, contact time 21 day","[1]; 500 ppm, Table 2","1,800 cfu/mL"
same,"cfu/mL, contact time 28 day","[1]; 500 ppm, Table 2","2,500 cfu/mL"
same,"Log Red, contact time 1 day","[1]; 1000 ppm, Table 1",1
same,"Log Red, contact time 3 day","[1]; 1000 ppm, Table 1",2
same,"Log Red, contact time 7 day","[1]; 1000 ppm, Table 1",5
same,"cfu/mL, contact time 1 day","[1]; 1000 ppm, Table 1","7,060,000 cfu/mL"
same,"cfu/mL, contact time 3 day","[1]; 1000 ppm, Table 1","1,680,000 cfu/mL"
same,"cfu/mL, contact time 7 day","[1]; 1000 ppm, Table 1","1,000 cfu/mL"
same,performance against the BIT biocide when measuring log reduction,"[1]; 1000 ppm, Table 1",far superior
same,"Log Red, contact time 1 day","[1]; 1000 ppm, Table 2",0
same,"Log Red, contact time 3 day","[1]; 1000 ppm, Table 2",4
same,"Log Red, contact time 7 day","[1]; 1000 ppm, Table 2",4
same,"Log Red, contact time 14 day","[1]; 1000 ppm, Table 2",4
same,"Log Red, contact time 21 day","[1]; 1000 ppm, Table 2",5
same,"Log Red, contact time 28 day","[1]; 1000 ppm, Table 2",4
same,"cfu/mL, contact time 1 day","[1]; 1000 ppm, Table 2","14,520,000 cfu/mL"
same,"cfu/mL, contact time 3 day","[1]; 1000 ppm, Table 2","7,000 cfu/mL"
same,"cfu/mL, contact time 7 day","[1]; 1000 ppm, Table 2","3,200 cfu/mL"
same,"cfu/mL, contact time 14 day","[1]; 1000 ppm, Table 2","2,500 cfu/mL"
same,"cfu/mL, contact time 21 day","[1]; 1000 ppm, Table 2","1,100 cfu/mL"
same,"cfu/mL, contact time 28 day","[1]; 1000 ppm, Table 2","1,700 cfu/mL"
same,"Log Red, contact time 1 day","[1]; 1000 ppm, Table 3",3
same,"Log Red, contact time 3 day","[1]; 1000 ppm, Table 3",2
same,"Log Red, contact time 7 day","[1]; 1000 ppm, Table 3",2
same,"Log Red, contact time 14 day","[1]; 1000 ppm, Table 3",3
same,"Log Red, contact time 21 day","[1]; 1000 ppm, Table 3",2
same,"Log Red, contact time 28 day","[1]; 1000 ppm, Table 3",2
same,"cfu/mL, contact time 1 day","[1]; 1000 ppm, Table 3",100 cfu/mL
same,"cfu/mL, contact time 3 day","[1]; 1000 ppm, Table 3",100 cfu/mL
same,"cfu/mL, contact time 7 day","[1]; 1000 ppm, Table 3",100 cfu/mL
same,"cfu/mL, contact time 14 day","[1]; 1000 ppm, Table 3",100 cfu/mL
same,"cfu/mL, contact time 21 day","[1]; 1000 ppm, Table 3",100 cfu/mL
same,"cfu/mL, contact time 28 day","[1]; 1000 ppm, Table 3",100 cfu/mL
same,"Log Red, contact time 1 day","[1]; 1500 ppm, Table 3",3
same,"Log Red, contact time 3 day","[1]; 1500 ppm, Table 3",2
same,"Log Red, contact time 7 day","[1]; 1500 ppm, Table 3",2
same,"Log Red, contact time 14 day","[1]; 1500 ppm, Table 3",3
same,"Log Red, contact time 21 day","[1]; 1500 ppm, Table 3",2
same,"Log Red, contact time 28 day","[1]; 1500 ppm, Table 3",2
same,"cfu/mL, contact time 1 day","[1]; 1500 ppm, Table 3",100 cfu/mL
same,"cfu/mL, contact time 3 day","[1]; 1500 ppm, Table 3",100 cfu/mL
same,"cfu/mL, contact time 7 day","[1]; 1500 ppm, Table 3",100 cfu/mL
same,"cfu/mL, contact time 14 day","[1]; 1500 ppm, Table 3",100 cfu/mL
same,"cfu/mL, contact time 21 day","[1]; 1500 ppm, Table 3",100 cfu/mL
same,"cfu/mL, contact time 28 day","[1]; 1500 ppm, Table 3",100 cfu/mL
same,biocide efficacy compared with known biocides,"[1]; Table 2, up to 28 days",comparable biocide efficacy as compared to known biocides
same,biocide effectiveness compared with thione,"[1]; Table 3, up to the 28 day testing, not challenge testing, 1000 and 1500 ppm",performed on a par with the thione
same,"Log Red, 21 day Challenge","[2]; 500 ppm, Table 2",3
same,"Log Red, 28 day Challenge","[2]; 500 ppm, Table 2",3
same,"cfu/mL, 21 day Challenge","[2]; 500 ppm, Table 2","73,000 cfu/mL"
same,"cfu/mL, 28 day Challenge","[2]; 500 ppm, Table 2","65,000 cfu/mL"
same,"Log Red, 21 day Challenge","[2]; 1000 ppm, Table 2",3
same,"Log Red, 28 day Challenge","[2]; 1000 ppm, Table 2",3
same,"cfu/mL, 21 day Challenge","[2]; 1000 ppm, Table 2","52,000 cfu/mL"
same,"cfu/mL, 28 day Challenge","[2]; 1000 ppm, Table 2","32,000 cfu/mL"
same,"Log Red, 21 day Challenge","[2]; 1000 ppm, Table 3",2
same,"Log Red, 28 day Challenge","[2]; 1000 ppm, Table 3",1
same,"cfu/mL, 21 day Challenge","[2]; 1000 ppm, Table 3","196,000 cfu/mL"
same,"cfu/mL, 28 day Challenge","[2]; 1000 ppm, Table 3","3,680,000 cfu/mL"
same,"Log Red, 21 day Challenge","[2]; 1500 ppm, Table 3",3
same,"Log Red, 28 day Challenge","[2]; 1500 ppm, Table 3",1
same,"cfu/mL, 21 day Challenge","[2]; 1500 ppm, Table 3","18,200 cfu/mL"
same,"cfu/mL, 28 day Challenge","[2]; 1500 ppm, Table 3","2,300,000 cfu/mL"
same,biocide effectiveness in challenge testing,"[2]; Table 3, challenge testing",still performed adequately
same,"biocide effectiveness after inoculation, overall result of the studies",[2]; after inoculation,effective biocide
